Test results: paper PMC6502838, “Low potential enzymatic hydride transfer via highly cooperative and inversely functionalized flavin cofactors” (Nature Communications, 2019)

Target: T1, 2-Naphthoyl-CoA reductase (NCR) (uncultured Desulfobacterium sp., UniProt E1YD54)
T1 construct: gene N47_G38220; Strep-tag fusion, E. coli host, monomer; TIM barrel 19-359, linker 360-400 with [4Fe-4S], FAD domain 401-503 + 626-674, alpha/beta domain 504-625
T1 sequence (E1YD54 1-670): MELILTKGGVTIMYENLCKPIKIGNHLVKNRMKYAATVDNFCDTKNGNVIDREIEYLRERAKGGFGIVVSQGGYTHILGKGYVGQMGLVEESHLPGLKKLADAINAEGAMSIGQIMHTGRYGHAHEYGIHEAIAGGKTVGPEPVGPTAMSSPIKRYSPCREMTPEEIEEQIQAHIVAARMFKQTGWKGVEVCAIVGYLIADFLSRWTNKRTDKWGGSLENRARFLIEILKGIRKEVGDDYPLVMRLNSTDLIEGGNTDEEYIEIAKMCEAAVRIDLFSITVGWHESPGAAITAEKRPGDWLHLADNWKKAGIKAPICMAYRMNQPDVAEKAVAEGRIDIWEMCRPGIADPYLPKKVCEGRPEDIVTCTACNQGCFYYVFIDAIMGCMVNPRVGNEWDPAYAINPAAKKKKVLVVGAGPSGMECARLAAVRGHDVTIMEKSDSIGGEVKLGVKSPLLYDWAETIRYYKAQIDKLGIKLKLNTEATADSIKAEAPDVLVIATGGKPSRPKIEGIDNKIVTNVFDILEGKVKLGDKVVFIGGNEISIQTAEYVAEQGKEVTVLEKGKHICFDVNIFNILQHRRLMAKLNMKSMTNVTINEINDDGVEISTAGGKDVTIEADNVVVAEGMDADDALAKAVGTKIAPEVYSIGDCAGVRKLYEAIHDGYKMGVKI
Assay: X-ray crystal structure, soaked, […] A
Type: binding
Conditions: crystals soaked with 0.5 mM NCoA, pH 6.5-7.0, 2 h, 4 C; active site, stacked on FMN; incompletely occupied

CC(C)(COP(=O)(O)OP(=O)(O)OC[C@H]1O[C@@H](n2cnc3c(N)ncnc32)[C@H](O)[C@@H]1OP(=O)(O)O)[C@@H](O)C(=O)NCCC(=O)NCCSC(=O)c1ccc2ccccc2c1 [NCoA]
X-ray crystal structure, soaked, 2.2 A: structure in complex with the substrate NCoA and the product DHNCoA were determined
